Data on 29 compounds can be found in the supplement of paper PMC7695840.

A word on the IC50: it is the concentration needed to halve the response being measured.

The subject of experiment [1] is Staphylococcus aureus MW2 (mecA+). Description: IC50 (growth, competition assay). To be noted: cefoxitin: subinhibitory. The gist of the method: (§1)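 Signals from DsRed (540/590) and GFP (485/520) were scaled on every plate between single-strain control medians, with No Treatment then set to 0.5. The cells were a 1:1 mix of pre-induced fluorescent S. aureus MW2 strains with and without the resistance gene, grown unshaken for 20 h at 37 °C and 90% humidity in LB in 1536-well plates under a subinhibitory drug dose set each day. Each strain's IC50 was defined as the dose halving the No Treatment signal, or the maximal signal.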

In experiment [2] the test system is Staphylococcus aureus MW2 delta-mecA (mecA-). Description: IC50 (growth, competition assay). The note with it: cefoxitin: subinhibitory. The gist of the method:
as §1

SMILES strings stand for the structures. Several values for one entry are separate records, joined by “and”; a condition that tells them apart may be missing. Identical values can stand only once. Counter-ions that a name gives are not always drawn. Where only a bound is given, the exact number is not on record here.

Regarding `OCCN1CCN(CCCN2c3ccccc3Sc3ccc(Cl)cc32)CC1` [Perphenazine], the IC50 is 70.8 µM in experiment [1] (fluorescent label: DsRed), 65.7 µM in experiment [1] (fluorescent label: GFP), 27.1 µM in experiment [2] (fluorescent label: DsRed) and 21.1 µM in experiment [2] (fluorescent label: GFP).
`CO[C@H]1/C=C/O[C@@]2(C)Oc3c(C)c(O)c4c(O)c(c(/C=N/N5CCN(C6CCCC6)CC5)c(O)c4c3C2=O)NC(=O)/C(C)=C\C=C\[C@H](C)[C@H](O)[C@@H](C)[C@@H](O)[C@@H](C)[C@H](OC(C)=O)[C@@H]1C` [Rifapentine]: the IC50 in experiment [1] (fluorescent label: DsRed), in experiment [1] (fluorescent label: GFP), in experiment [2] (fluorescent label: DsRed) and in experiment [2] (fluorescent label: GFP) was < 0.498 µM throughout.
Consider `O=C(O)c1cn(-c2ccc(F)cc2)c2cc(N3CCNCC3)c(F)cc2c1=O` [SARAFLOX], for which the IC50 in experiment [1] (fluorescent label: DsRed), in experiment [1] (fluorescent label: GFP), in experiment [2] (fluorescent label: DsRed) and in experiment [2] (fluorescent label: GFP) was < 9.85 µM throughout.
As to `O=C(O[C@@H]1Cc2c(O)cc(O)cc2O[C@@H]1c1cc(O)c(O)c(O)c1)c1cc(O)c(O)c(O)c1` [(-)-Epigallocatechin gallate], the IC50 in experiment [1] (fluorescent label: DsRed) is 27.4 µM and 17.3 µM; in experiment [1] (fluorescent label: GFP), 29.7 µM and 46.5 µM; in experiment [2] (fluorescent label: DsRed) it was 4.65 µM and < 9.85 µM; in experiment [2] (fluorescent label: GFP) it was 3.45 µM and < 9.85 µM.
Consider `CCOC(=O)C1=C(C)NC(C)=C(C(=O)OC)C1c1cccc(Cl)c1Cl` (stereo unspecified) [Felodipine], for which the concentration for half-maximal inhibition (IC50) in experiment [1] (fluorescent label: DsRed) was 27.8 µM; in experiment [1] (fluorescent label: GFP), 32.3 µM; in experiment [2] (fluorescent label: DsRed) it was < 9.85 µM; in experiment [2] (fluorescent label: GFP), < 9.85 µM.
For the compound `CCc1cc(-c2n[nH]c(C)c2-c2ccc3c(c2)OCCO3)c(O)cc1O`, the IC50 was 82.7 µM in experiment [1] (fluorescent label: DsRed), 102 µM in experiment [1] (fluorescent label: GFP), 15.4 µM in experiment [2] (fluorescent label: DsRed) and < 9.85 µM in experiment [2] (fluorescent label: GFP).
For `C=CC(=O)Nc1cccc(Sc2nc(Nc3ccc(N4CCN(C)CC4)cc3)ncc2Cl)c1` [WZ8040] the same measures were 17.1 µM, 28.9 µM, 2.02 µM and 2.67 µM.
For `CC[C@@H]1C(=O)N(C)c2cnc(Nc3ccc(C(=O)NC4CCN(C)CC4)cc3OC)nc2N1C1CCCC1` [BI 2536], the IC50 in experiment [1] (fluorescent label: DsRed) was determined as 106 µM; in experiment [1] (fluorescent label: GFP), 112 µM; in experiment [2] (fluorescent label: DsRed) it was 21.6 µM; in experiment [2] (fluorescent label: GFP), 30.1 µM.
For the compound `Cc1cc2nc3c(=O)[nH]c(=O)nc-3n(C[C@H](O)[C@H](O)[C@H](O)CO)c2cc1C` [Riboflavin (Vitamin B2)], the IC50 in experiment [1] (fluorescent label: DsRed), in experiment [1] (fluorescent label: GFP), in experiment [2] (fluorescent label: DsRed) and in experiment [2] (fluorescent label: GFP) was > 150 µM each time.
With `N[C@@H](C(=O)N[C@@H]1C(=O)N2C(C(=O)O)=C(Cl)CS[C@H]12)c1ccccc1` [CECLOR], the IC50 in experiment [1] (fluorescent label: DsRed) is 87.9 µM; in experiment [1] (fluorescent label: GFP), 87.8 µM; in experiment [2] (fluorescent label: DsRed), < 9.85 µM; in experiment [2] (fluorescent label: GFP) it was < 9.85 µM.
For `CCN(CC)C(=S)SSC(=S)N(CC)CC` [ANTABUSE], the half-maximal inhibitory concentration (IC50) in experiment [1] (fluorescent label: DsRed) was determined as 31.7 µM; in experiment [1] (fluorescent label: GFP), 33.4 µM; in experiment [2] (fluorescent label: DsRed), 12.3 µM; in experiment [2] (fluorescent label: GFP), 11.1 µM.
The corresponding values for `O=C(OC[C@H]1O[C@@H](OC(=O)c2cc(O)c(O)c(OC(=O)c3cc(O)c(O)c(O)c3)c2)[C@H](OC(=O)c2cc(O)c(O)c(OC(=O)c3cc(O)c(O)c(O)c3)c2)[C@@H](OC(=O)c2cc(O)c(O)c(OC(=O)c3cc(O)c(O)c(O)c3)c2)[C@@H]1OC(=O)c1cc(O)c(O)c(OC(=O)c2cc(O)c(O)c(O)c2)c1)c1cc(O)c(O)c(OC(=O)c2cc(O)c(O)c(O)c2)c1` [TANNIC ACID] are 57 µM, 57.2 µM, 44 µM and 55.3 µM.
On to `N=C(N)c1ccc(OCCCCCOc2ccc(C(=N)N)cc2)cc1` [NEBUPENT], for which the IC50 came out at 16.2 µM in experiment [1] (fluorescent label: DsRed), 23.6 µM in experiment [1] (fluorescent label: GFP), 14.5 µM in experiment [2] (fluorescent label: DsRed) and 13.7 µM in experiment [2] (fluorescent label: GFP).
Turning to `N#C[C@H](O[C@@H]1O[C@H](CO[C@@H]2O[C@H](CO)[C@@H](O)[C@H](O)[C@H]2O)[C@@H](O)[C@H](O)[C@H]1O)c1ccccc1` [Amygdalin], the IC50 in experiment [1] (fluorescent label: DsRed) is 23.8 µM; in experiment [1] (fluorescent label: GFP) it was 28.9 µM; in experiment [2] (fluorescent label: DsRed), < 9.85 µM; in experiment [2] (fluorescent label: GFP), < 9.85 µM.
For the compound `CN[C@@H]1[C@@H](O)[C@@H](O[C@@H]2[C@@H](O)[C@H](O[C@H]3O[C@H]([C@@H](C)O)[C@@H](O)[C@H](O)[C@H]3N)[C@@H](N)C[C@H]2N)OC[C@]1(C)O` [GENETICIN], the IC50 in experiment [1] (fluorescent label: DsRed) was < 9.85 µM; in experiment [1] (fluorescent label: GFP) it was 12.5 µM; in experiment [2] (fluorescent label: DsRed), < 9.85 µM; in experiment [2] (fluorescent label: GFP), 12.4 µM.
Take `Clc1ccc(C(Cn2ccnc2)OCc2ccsc2Cl)c(Cl)c1` (stereo unspecified) [Tioconazole]: the IC50 in experiment [1] (fluorescent label: DsRed) was 29.7 µM; in experiment [1] (fluorescent label: GFP) it was 17.8 µM; in experiment [2] (fluorescent label: DsRed) it was 3.9 µM; in experiment [2] (fluorescent label: GFP) it was 14.2 µM.
As for `CCCCCCCCCCCCCCCC[N+](C)(C)C` [CETAB], the IC50 in experiment [1] (fluorescent label: DsRed), in experiment [1] (fluorescent label: GFP), in experiment [2] (fluorescent label: DsRed) and in experiment [2] (fluorescent label: GFP) was < 9.85 µM each time.
With `CCN(CC)CCOc1ccc(C(=C(Cl)c2ccccc2)c2ccccc2)cc1` [Clomifene citrate (Serophene)], the IC50 in experiment [1] (fluorescent label: DsRed) was 15 µM; in experiment [1] (fluorescent label: GFP), 14.9 µM; in experiment [2] (fluorescent label: DsRed), < 9.85 µM; in experiment [2] (fluorescent label: GFP), < 9.85 µM.
Consider `CO[C@@H]1[C@@H](OC(N)=O)[C@@H](O)[C@H](Oc2ccc3c(O)c(NC(=O)c4ccc(O)c(CC=C(C)C)c4)c(=O)oc3c2C)OC1(C)C` [ALBAMYCIN], for which the IC50 in experiment [1] (fluorescent label: DsRed), in experiment [1] (fluorescent label: GFP), in experiment [2] (fluorescent label: DsRed) and in experiment [2] (fluorescent label: GFP) was < 9.85 µM in each case.
With `COC(=O)C1=C(C)NC(C)=C(C(=O)OCC(C)C)C1c1ccccc1[N+](=O)[O-]` (stereo unspecified) [SULAR], the IC50 in experiment [1] (fluorescent label: DsRed) was > 150 µM; in experiment [1] (fluorescent label: GFP) it was > 150 µM; in experiment [2] (fluorescent label: DsRed) it was 78 µM; in experiment [2] (fluorescent label: GFP), 51.8 µM.
Take `CC[C@H]1OC(=O)[C@H](C)[C@@H](O[C@H]2C[C@@](C)(OC)[C@@H](O)[C@H](C)O2)[C@H](C)[C@@H](O[C@@H]2O[C@H](C)C[C@H](N(C)C)[C@H]2O)[C@](C)(O)C[C@@H](C)[C@@H]2N[C@@H](COCCOC)O[C@H]([C@H]2C)[C@]1(C)O` [DYNABAC]: the IC50 in experiment [1] (fluorescent label: DsRed) was 21.4 µM; in experiment [1] (fluorescent label: GFP), 21.3 µM; in experiment [2] (fluorescent label: DsRed), < 9.85 µM; in experiment [2] (fluorescent label: GFP), < 9.85 µM.
With `Cc1onc(-c2c(Cl)cccc2Cl)c1C(=O)N[C@@H]1C(=O)N2[C@@H]1SC(C)(C)[C@@H]2C(=O)O` [Dicloxacillin Sodium], the IC50 in experiment [1] (fluorescent label: DsRed), in experiment [1] (fluorescent label: GFP), in experiment [2] (fluorescent label: DsRed) and in experiment [2] (fluorescent label: GFP) was < 9.85 µM throughout.
For the compound `COc1cc2ncnc(Nc3ccc(Oc4ccccc4)cc3)c2cc1OC` [Src I1], the IC50 in experiment [1] (fluorescent label: DsRed) came out at 29 µM; in experiment [1] (fluorescent label: GFP), 30.7 µM; in experiment [2] (fluorescent label: DsRed) it was 30.6 µM; in experiment [2] (fluorescent label: GFP), 25.3 µM.
For `Cc1onc(-c2ccccc2Cl)c1C(=O)N[C@@H]1C(=O)N2[C@@H]1SC(C)(C)[C@@H]2C(=O)O` [Cloxacillin sodium], the IC50 in experiment [1] (fluorescent label: DsRed), in experiment [1] (fluorescent label: GFP), in experiment [2] (fluorescent label: DsRed) and in experiment [2] (fluorescent label: GFP) was < 9.85 µM throughout.
Turning to `COc1ccc2c(c1)OC[C@@H](Cc1ccc(OC)c(OC)c1)[C@H]2O` [TETRAHYDROSAPPANONE A TRIMETHYL ETHER], the IC50 in experiment [1] (fluorescent label: DsRed), in experiment [1] (fluorescent label: GFP), in experiment [2] (fluorescent label: DsRed) and in experiment [2] (fluorescent label: GFP) was > 150 µM each time.
For `O=C1NC(=O)[C@@H](c2cn3c4c(cccc24)CCC3)[C@@H]1c1c[nH]c2ccccc12` [ARQ 197 (Tivantinib)], the IC50 in experiment [1] (fluorescent label: DsRed) worked out at 107 µM; in experiment [1] (fluorescent label: GFP), 112 µM; in experiment [2] (fluorescent label: DsRed), 32.2 µM; in experiment [2] (fluorescent label: GFP), 57.3 µM.
In the case of `COc1cccc(C2(O)CCCCC2CN(C)C)c1` (stereo unspecified) [ULTRAM], the IC50 in experiment [1] (fluorescent label: DsRed) was determined as 131 µM; in experiment [1] (fluorescent label: GFP) it was 135 µM; in experiment [2] (fluorescent label: DsRed) it was 101 µM; in experiment [2] (fluorescent label: GFP) it was 60.8 µM.
As to `CC(=O)NC[C@H]1CN(c2ccc(N3CCOCC3)c(F)c2)C(=O)O1` [Linezolid (Zyvox)], the IC50 in experiment [1] (fluorescent label: DsRed) is 2.31 µM; in experiment [1] (fluorescent label: GFP), 2.83 µM; in experiment [2] (fluorescent label: DsRed), 0.992 µM; in experiment [2] (fluorescent label: GFP), < 0.498 µM.
With `CN(C)C(=O)C(CCN1CCC(O)(c2ccc(Cl)cc2)CC1)(c1ccccc1)c1ccccc1` [Loperamide hydrochloride], the IC50 in experiment [1] (fluorescent label: DsRed) worked out at 103 µM; in experiment [1] (fluorescent label: GFP) it was 109 µM; in experiment [2] (fluorescent label: DsRed) it was 31.4 µM; in experiment [2] (fluorescent label: GFP) it was 39 µM.
